# From patent US9066938B2, “GPBP-1 inhibition and its therapeutic use” (Fibrostatin S.L., priority 2012, dated 2015)
# Where a name gives a salt, the structure may show the parent alone.
# Columns and labels:
# A549 xenografts = experiment: Mouse xenograft study with A549 tumors; format: in vivo, nude mice; settings: for tumor growth, single compound: doxorubicin 2.5 mg/kg per week i.p. or T12 20 mg/kg per day in drinking water, three weeks
# Method: FIG. 11. T12 and doxorubicin are synergistic arresting growth of A549-based tumors. Nude mice bearing A549 xenografts were treated with the indicated compounds as indicated in Methods and Experimental Design. Indicated are the tumor size at the indicated times. […] FIG. 12. T12 and doxorubicin are synergistic necrotizing A549-based tumors. Tumor samples from mice used in FIG. 11 were fixed in formalin, paraffin-embedded, subjected to Masson's trichrome staining and observed by optical microscopy. Necrotic areas are indicated with asterisks. Shown are representative images. FIG. 13. […] Ten-week old nude mice (NMRi-Foxn1^nu/Foxn1^nu) (Janvier) were used for xenograft studies. Three-million A549 cells were suspended in 100 μL of culture medium, mixed with 200 μL Matrigel (BD) and subcutaneously injected on the flank of individual mouse (n=40). Tumor size was periodically measured with a digital caliper and volumes were calculated with the formula […]. […] After three weeks mice were sacrificed, tumor xenografts excised and either fixed with formalin and paraffin-embedded or frozen and RNA extracted. Sections of paraffin-embedded tumor samples were subjected to hematoxylin and eosin and Masson's trichrome standard stainings. Frozen tumor samples were ground with a mortar in liquid nitrogen and total RNA extracted as above indicated.
# [1] = biological target: T1, recombinant human GPBP-1 produced in insect cells (Homo sapiens, UniProt Q9Y5P4); experiment: Affinity constants for GPBP-1 by the Benesi-Hildebrand method; format: binding
# T1 construct: FLAG (N); made in house; host or cells: SF9 insect cells (baculovirus, pFastBac1)
# T1 sequence (Q9Y5P4 1-624): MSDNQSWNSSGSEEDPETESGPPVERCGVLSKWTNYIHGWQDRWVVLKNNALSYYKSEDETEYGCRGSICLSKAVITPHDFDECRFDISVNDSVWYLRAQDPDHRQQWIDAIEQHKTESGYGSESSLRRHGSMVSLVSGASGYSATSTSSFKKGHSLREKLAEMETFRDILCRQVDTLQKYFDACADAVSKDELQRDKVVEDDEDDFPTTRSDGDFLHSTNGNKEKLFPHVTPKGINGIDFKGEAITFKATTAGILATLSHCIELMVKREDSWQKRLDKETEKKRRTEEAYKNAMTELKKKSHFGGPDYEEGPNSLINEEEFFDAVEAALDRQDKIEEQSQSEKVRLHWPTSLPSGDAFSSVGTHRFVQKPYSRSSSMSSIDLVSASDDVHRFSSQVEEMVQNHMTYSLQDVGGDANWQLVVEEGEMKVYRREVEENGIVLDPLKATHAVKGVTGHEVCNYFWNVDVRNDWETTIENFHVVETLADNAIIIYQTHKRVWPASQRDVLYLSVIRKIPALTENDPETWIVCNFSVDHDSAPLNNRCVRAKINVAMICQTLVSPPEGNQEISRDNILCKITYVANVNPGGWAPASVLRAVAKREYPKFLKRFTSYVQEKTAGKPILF
# Method: FIG. 1. […] A, to assess the inhibitory activity of T12 and doxorubicin on GPBP-1 kinase activity and their synergism, approximately 200 ng of yeast FLAG-GPBP-1 from two different preparations with low and high specific activities were incubated with [γ-^32P]ATP in the absence (−) or presence (+) of the indicated compounds and concentrations. Mixtures were subjected to Western blot and autoradiographed (^32P). The levels of GPBP were further analyzed using anti-FLAG (WB). B, in the panel is shown affinity constants of the indicated compounds for recombinant human GPBP-1 produced in insect cells calculated by the Benesi-Hildebrand method. Recombinant yeast GPBP-1 was expressed in Pichia pastoris and affinity-purified as previously described (Raya et al. 1999, raya et al. 2000). To express and purify recombinant FLAG-GPBP-1 from SF9 insect cells, the cDNA of FLAG-GPBP-1 was cloned in the baculovirus expression vector pFastBac1. The plasmid was transformed into DH10Bac competent cells and the recombinant baculovirus was produced following manufacturer's recommendations (Bac-to-Bac™ Baculovirus Expression System, Invitrogen, Life Technologies). Baculovirus was used to infect SF9 cells and GPBP-1 in the supernatant of culture media was purified by affinity chromatography using anti-FLAG agarose (Sigma-Aldrich) following manufacturer's recommendations. GPBP-1 phosphorylation assays were performed as previously described (Raya et al. 1999).
# [2] = tested on: CSC/SP compartment of A549 cell cultures; experiment: Side population (CSC/SP) staining with Hoechst 33342, flow cytometry; format: cell-based, human; settings: for cell content of the CSC/SP compartment: single compound
# Method: FIG. 9. […] A, cultures of A549 cells were incubated with Hoescht 33342 in the absence (−) or presence (+) of verapamil (50 μM) and fumitremorgin C (10 μM). Circled area (R2) denotes the region containing the flow cytometry events representing CSC/SP cells. B, shown are the relative abundance of CSC/SP cells (%) in cell cultures untreated (control) or treated with the indicated compounds.
# A549 cells were suspended at 10^6 cells/mL in culture medium containing 10 mM Hepes (previously warmed at 37° C.). Hoechst 33342 was added at 5 μg/mL and cells incubated in a 37° C. bath with shaking for 90 min in the dark. Before incubation (and after staining) an aliquot of 1 mL was taken and verapamil (50 μM) and fumitremorgin C (10 μM) added. Cells were centrifuged at 300×g for 5 min at 4° C. and suspended in cold medium with 10 mM Hepes. Cells were kept at 4° C. until analysis. Analysis of Hoechst 33342 efflux was assessed using a Flow Cytometer with incident 350 nm ultraviolet light. The resulting fluorescence was measured at two wavelengths using 424/44 BP and 675 LP filters that allow detection of Hoechst blue and red, respectively. […] Doxorubicin content in either population was estimated with incident 488 nm blue light and 585/40 filter. Verapamil and fumitremorgin C werer used to identify SP region.
# [3] = tested on: GPBP expression in A549 cells; experiment: GPBP expression in A549 cells after treatment; format: cell-based, human
# Method: A549 cells treated for 4 weeks with 1 μM doxorubicin (A549-DR). Fifty μg of cellular lysates of A549 and A549-DR cells were analyzed by Western blot to assess the levels of GPBP using GPBP-specific mAb N27. Tubulin was stained with specific antibodies and used as loading control.
# This was assessed by selecting A549 cells with doxorubicin and analyzed GPBP expression by Western blot (FIG. 15).
# human recombinant GPBP-1 = biological target: T2, human recombinant GPBP-1 (Homo sapiens, UniProt Q9Y5P4); experiment: GPBP-1 in vitro autophosphorylation (kinase) assay with [γ-32P]ATP; format: biochemical
# T2 construct: made in house; host or cells: Pichia pastoris
# T2 sequence (Q9Y5P4 1-624): T1 sequence (Q9Y5P4 1-624)
# Excerpt: To explore the possibility that doxorubicin, an anti-tumor agent targeting topoisomerase II (Pommier et al. 2010), operates through GPBP-1, human recombinant GPBP-1 (Raya et al. 1999) was subjected to in vitro autophosphorylation in the presence or absence of doxorubicin and T12 (FIG. 1A).
# [4] = 2.5 mg/kg/week doxorubicin and 20 mg/kg/day T12, three weeks
SMILES,"matrix metalloproteinase 10 (MMP-10) expression in tumors, combined treatment (A549 xenografts; 2.5 mg/kg/week doxorubicin and 20 mg/kg/day T12, qPCR)","necrotic areas within the tumors, combined treatment (A549 xenografts; [4])","tumor growth, combined administration (A549 xenografts; [4])","tumor growth, single compound (A549 xenografts)",affinity / manner of binding to GPBP-1 [1],"CSC/SP compartment relative to untreated cultures, co-treatment ([2]; doxorubicin and T12 co-treatment)",cell content of the CSC/SP compartment [2],GPBP expression in A549 cells in response to treatment [3],inhibitory activity on GPBP-1 autophosphorylation in combination with doxorubicin (human recombinant GPBP-1; T12 plus doxorubicin),"binding to GPBP-1, fold stronger than T12 (affinity constants) ([1]; relative to T12)",inhibition of GPBP-1 autophosphorylation (human recombinant GPBP-1; compound alone)
"COc1ccc(-c2ccc(-c3cccc(C)c3)c(C)c2)c(CCC(=O)O)c1 [T12, 3-[4″-methoxy-3,2′-dimethyl-(1,1′;4′,1″)terphenyl-2″-yl] propionic acid]",lower levels,more extensive,tumor arrest,did not impaired tumor growth,light-moderated affinity,one fourth,reduction,no evidence for increased expression of GPBP,synergistic,–,–
"COc1cccc2c1C(=O)c1c(O)c3c(c(O)c1C2=O)C[C@@](O)(C(=O)CO)C[C@@H]3O[C@H]1C[C@H](N)[C@H](O)[C@H](C)O1 [doxorubicin, doxorubicin hydrochloride, reference compound]",–,–,–,did not impaired tumor growth,irreversible,–,reduction,increased GPBP cell expression,–,~10^5 fold,efficiently inhibited
